{
  "source": "ChEMBL document CHEMBL4376820",
  "about": "“Homodimeric Tobramycin Adjuvant Repurposes Novobiocin as an Effective Antibacterial Agent against Gram-Negative Bacteria” (J Med Chem, 2019)",
  "key": {"[1]": {"system": "Pseudomonas aeruginosa", "experiment": "Induction of outer membrane permeabilization in Pseudomonas aeruginosa PAO1 assessed as increase in accumulation of NPN by measuring fluorescence intensity measured immediately by NPN dye uptake assay", "type": "organism-based"}, "[2]": {"system": "Pseudomonas aeruginosa", "experiment": "Potentiation of novobiocin-induced antibacterial activity against carbapenem and colistin-resistant Pseudomonas aeruginosa 91433 clinical isolate assessed as novobiocin MIC at <= 7.1 uM incubated for 18 hrs by CLSI protocol based assay (reference value: 16 ug/ml)", "type": "functional", "conditions": "Pseudomonas aeruginosa, 91433, 18 h"}, "[3]": {"system": "Pseudomonas aeruginosa", "experiment": "Potentiation of novobiocin-induced antibacterial activity against carbapenem-resistant Pseudomonas aeruginosa 101885 clinical isolate assessed as novobiocin MIC at <= 7.1 uM incubated for 18 hrs by CLSI protocol based assay (reference value: 1024 ug/ml)", "type": "functional", "conditions": "Pseudomonas aeruginosa, 101885, 18 h"}, "[4]": {"system": "Pseudomonas aeruginosa", "experiment": "Antibacterial activity against carbapenem and colistin-resistant Pseudomonas aeruginosa 91433 clinical isolate incubated for 18 hrs by CLSI protocol based assay", "type": "functional", "conditions": "Pseudomonas aeruginosa, 91433, 18 h"}, "[5]": {"system": "Pseudomonas aeruginosa", "experiment": "Synergistic antibacterial activity against wild type Pseudomonas aeruginosa PAO1 assessed as potentiation of piperacillin-induced antibacterial effect incubated for 18 hrs by checkerboard assay", "type": "functional, organism-based"}, "[6]": {"system": "Escherichia coli", "experiment": "Potentiation of novobiocin-induced antibacterial activity against wild type Escherichia coli ATCC 25922 assessed as novobiocin MIC at <= 7.1 uM incubated for 18 hrs by CLSI protocol based assay (reference value: 64 ug/ml)", "type": "functional", "conditions": "ATCC 25922, 18 h"}, "[7]": {"system": "Pseudomonas aeruginosa", "experiment": "Synergistic antibacterial activity against wild type Pseudomonas aeruginosa PAO1 assessed as potentiation of aztreonam-induced antibacterial effect incubated for 18 hrs by checkerboard assay", "type": "functional, organism-based"}, "[8]": {"system": "Pseudomonas aeruginosa", "experiment": "Synergistic antibacterial activity against wild type Pseudomonas aeruginosa PAO1 assessed as potentiation of novobiocin-induced antibacterial effect incubated for 18 hrs by checkerboard assay relative to novobiocin alone", "type": "functional"}, "[9]": {"system": "Acinetobacter baumannii", "experiment": "Antibacterial activity against wild type Acinetobacter baumannii ATCC 17978 incubated for 18 hrs by CLSI protocol based assay", "type": "functional", "conditions": "ATCC 17978, 18 h"}, "[10]": {"system": "Pseudomonas aeruginosa", "experiment": "Synergistic antibacterial activity against wild type Pseudomonas aeruginosa PAO1 assessed as potentiation of tobramycin-induced antibacterial effect at <= 7.1 uM incubated for 18 hrs by checkerboard assay", "type": "functional, organism-based"}, "[11]": {"system": "Pseudomonas aeruginosa", "experiment": "Synergistic antibacterial activity against wild type Pseudomonas aeruginosa PAO1 assessed as potentiation of meropenem-induced antibacterial effect incubated for 18 hrs by checkerboard assay", "type": "functional, organism-based"}, "[12]": {"system": "Pseudomonas aeruginosa", "experiment": "Potentiation of novobiocin-induced antibacterial activity against wild type Pseudomonas aeruginosa PAO1 assessed as fold reduction in novobiocin MIC incubated for 18 hrs by CLSI protocol based assay relative to novobiocin MIC", "type": "functional"}, "[13]": {"system": "Klebsiella pneumoniae", "experiment": "Bactericidal activity against Klebsiella pneumoniae 116381 assessed as log reduction in colony forming units per ml at 7.1 in LB media after 24 hrs by time-kill assay", "type": "functional"}, "[14]": {"system": "Acinetobacter baumannii", "experiment": "Antibacterial activity against Acinetobacter baumannii 031 clinical incubated for 18 hrs by CLSI protocol based assay", "type": "functional", "conditions": "Acinetobacter baumannii, 031, 18 h"}, "[15]": {"system": "Acinetobacter baumannii", "experiment": "Antibacterial activity against Acinetobacter baumannii 027 clinical incubated for 18 hrs by CLSI protocol based assay", "type": "functional", "conditions": "Acinetobacter baumannii, 027, 18 h"}, "[16]": {"system": "Acinetobacter baumannii", "experiment": "Potentiation of novobiocin-induced antibacterial activity against Acinetobacter baumannii 031 clinical isolate assessed as fold reduction in novobiocin MIC incubated for 18 hrs by CLSI protocol based assay relative to novobiocin MIC", "type": "functional"}, "[17]": {"system": "Pseudomonas aeruginosa", "experiment": "Synergistic antibacterial activity against wild type Pseudomonas aeruginosa PAO1 assessed as potentiation of rifampicin-induced antibacterial effect incubated for 18 hrs by checkerboard assay", "type": "functional, organism-based"}, "[18]": {"system": "Escherichia coli", "experiment": "Bactericidal activity against Escherichia coli ATCC […] assessed as log reduction in colony forming units per ml at 7.1 uM in LB media after 6 hrs in presence of 50.4 uM novobiocin by time-kill assay", "type": "functional"}, "[19]": {"system": "Pseudomonas aeruginosa", "experiment": "Synergistic antibacterial activity against wild type Pseudomonas aeruginosa PAO1 assessed as potentiation of piperacillin-induced antibacterial effect incubated for 18 hrs by checkerboard assay relative to piperacillin alone", "type": "functional"}, "[20]": {"system": "Pseudomonas aeruginosa", "experiment": "Synergistic antibacterial activity against wild type Pseudomonas aeruginosa PAO1 assessed as potentiation of levofloxacin-induced antibacterial effect incubated for 18 hrs by checkerboard assay", "type": "functional, organism-based"}, "[21]": {"system": "Pseudomonas aeruginosa", "experiment": "Antibacterial activity against mexAB-oprM/mexCD-oprJ/mexEF-oprN/mexJK/mexXY/opmH mutant deficient Pseudomonas aeruginosa PAO750 incubated for 18 hrs by CLSI protocol based assay", "type": "functional", "conditions": "PAO750, 18 h"}, "[22]": {"system": "Acinetobacter baumannii", "experiment": "Potentiation of novobiocin-induced antibacterial activity against wild type Acinetobacter baumannii ATCC 17978 assessed as fold reduction in novobiocin MIC incubated for 18 hrs by CLSI protocol based assay relative to novobiocin MIC", "type": "functional"}, "[23]": {"system": "Acinetobacter baumannii", "experiment": "Potentiation of novobiocin-induced antibacterial activity against Acinetobacter baumannii LAC-4 clinical isolate assessed as fold reduction in novobiocin MIC incubated for 18 hrs by CLSI protocol based assay relative to novobiocin MIC", "type": "functional"}, "[24]": {"system": "Escherichia coli", "experiment": "Antibacterial activity against colistin-resistant Escherichia coli 94474 clinical isolate harboring mcr-1 gene incubated for 18 hrs by CLSI protocol based assay", "type": "functional", "conditions": "Escherichia coli, 94474, 18 h"}, "[25]": {"system": "Escherichia coli", "experiment": "Antibacterial activity against carbapenem-resistant Escherichia coli 107115 clinical isolate harboring mcr-1 gene incubated for 18 hrs by CLSI protocol based assay", "type": "functional", "conditions": "Escherichia coli, 107115, 18 h"}, "[26]": {"system": "Acinetobacter baumannii", "experiment": "Antibacterial activity against wild type Acinetobacter baumannii ATCC 17978 assessed as resistant development at 7.1 uM measured after 3 days of passaging in presence of novobiocin by microbroth dilution method relative to control", "type": "functional"}, "[27]": {"system": "Pseudomonas aeruginosa", "experiment": "Synergistic antibacterial activity against wild type Pseudomonas aeruginosa PAO1 assessed as potentiation of fosfomycin-induced antibacterial effect incubated for 18 hrs by checkerboard assay", "type": "functional, organism-based"}, "[28]": {"system": "Pseudomonas aeruginosa", "experiment": "Synergistic antibacterial activity against wild type Pseudomonas aeruginosa PAO1 assessed as potentiation of fosfomycin-induced antibacterial effect incubated for 18 hrs by checkerboard assay relative to fosfomycin alone", "type": "functional"}, "[29]": {"system": "Enterobacter cloacae", "experiment": "Antibacterial activity against Enterobacter cloacae 117029 clinical solate incubated for 18 hrs by CLSI protocol based assay", "type": "functional", "conditions": "Enterobacter cloacae, 117029, 18 h"}, "[30]": {"system": "Pseudomonas aeruginosa", "experiment": "Antibacterial activity against carbapenem and colistin-resistant Pseudomonas aeruginosa 114228 clinical incubated for 18 hrs by CLSI protocol based assay B84", "type": "functional", "conditions": "Pseudomonas aeruginosa, 114228, 18 h"}, "[31]": {"system": "Pseudomonas aeruginosa", "experiment": "Antibacterial activity against wild type Pseudomonas aeruginosa PAO1 assessed as fractional inhibitory concentration index incubated for 18 hrs in presence of tobramycin by checkerboard assay", "type": "functional"}, "[32]": {"system": "Acinetobacter baumannii", "experiment": "Antibacterial activity against colistin-resistant Acinetobacter baumannii 92257 clinical isolate incubated for 18 hrs by CLSI protocol based assay", "type": "functional", "conditions": "Acinetobacter baumannii, 92257, 18 h"}, "[33]": {"system": "Pseudomonas aeruginosa", "experiment": "Potentiation of novobiocin-induced antibacterial activity against carbapenem-resistant Pseudomonas aeruginosa 264-104354 clinical isolate assessed as novobiocin MIC at <= 7.1 uM incubated for 18 hrs by CLSI protocol based assay (reference value: 512 ug/ml)", "type": "functional", "conditions": "264-104354, 18 h"}, "[34]": {"system": "Pseudomonas aeruginosa", "experiment": "Synergistic antibacterial activity against wild type Pseudomonas aeruginosa PAO1 assessed as potentiation of doxycycline-induced antibacterial effect incubated for 18 hrs by checkerboard assay", "type": "functional, organism-based"}, "[35]": {"system": "Acinetobacter baumannii", "experiment": "Antibacterial activity against novobiocin-resistant Acinetobacter baumannii ATCC 17978 mutant generated from seven serial passages by checkerboard assay", "type": "functional"}},
  "note": "Calls of active or inactive are those of the source. No cut-off for these calls is given here.",
  "data": [
    {"molecule": "NC[C@H]1O[C@H](O[C@H]2[C@H](OCCCCc3cn(CCCCO[C@@H]4[C@@H](O[C@H]5O[C@H](CO)[C@@H](O)[C@H](N)[C@H]5O)[C@H](N)C[C@H](N)[C@H]4O[C@H]4O[C@H](CN)[C@@H](O)C[C@H]4N)nn3)[C@@H](O[C@H]3O[C@H](CO)[C@@H](O)[C@H](N)[C@H]3O)[C@H](N)C[C@@H]2N)[C@H](N)C[C@@H]1O.O=C(O)C(F)(F)F.O=C(O)C(F)(F)F.O=C(O)C(F)(F)F.O=C(O)C(F)(F)F.O=C(O)C(F)(F)F.O=C(O)C(F)(F)F.O=C(O)C(F)(F)F.O=C(O)C(F)(F)F.O=C(O)C(F)(F)F.O=C(O)C(F)(F)F", "values": [
      {"measurement": "Activity", "setting": "[1]", "result": "Dose-dependent effect"},
      {"measurement": "MIC", "setting": "[2]", "result": 1, "unit": "µg/mL"},
      {"measurement": "MIC", "setting": "[3]", "result": 8, "unit": "µg/mL"},
      {"measurement": "MIC", "setting": "[4]", "result": "> 128", "unit": "µg/mL"},
      {"measurement": "Activity", "setting": "[5]", "result": "Dose-dependent effect"},
      {"measurement": "MIC", "setting": "[6]", "result": 2, "unit": "µg/mL"},
      {"measurement": "Activity", "setting": "[7]", "result": "Dose-dependent effect"},
      {"measurement": "fold change (FC)", "setting": "[8]", "result": "4 - 128"},
      {"measurement": "MIC", "setting": "[9]", "result": "> 128", "unit": "µg/mL"},
      {"measurement": "Activity", "setting": "[10]", "result": "inactive"},
      {"measurement": "Activity", "setting": "[11]", "result": "Dose-dependent effect"},
      {"measurement": "Ratio", "setting": "[12]", "result": 128},
      {"measurement": "Activity", "setting": "[13]", "result": -8.68, "unit": "CFU/ml"},
      {"measurement": "MIC", "setting": "[14]", "result": "> 128", "unit": "µg/mL"},
      {"measurement": "MIC", "setting": "[15]", "result": "> 128", "unit": "µg/mL"},
      {"measurement": "Ratio", "setting": "[16]", "result": 16},
      {"measurement": "Activity", "setting": "[17]", "result": "Dose-dependent effect"},
      {"measurement": "Activity", "setting": "[18]", "result": -5, "unit": "CFU/ml"},
      {"measurement": "fold change (FC)", "setting": "[19]", "result": "4 - 128"},
      {"measurement": "Activity", "setting": "[20]", "result": "Dose-dependent effect"},
      {"measurement": "MIC", "setting": "[21]", "result": "> 128", "unit": "µg/mL"},
      {"measurement": "Ratio", "setting": "[22]", "result": 32},
      {"measurement": "Ratio", "setting": "[23]", "result": 16},
      {"measurement": "MIC", "setting": "[24]", "result": "> 128", "unit": "µg/mL"},
      {"measurement": "MIC", "setting": "[25]", "result": "> 128", "unit": "µg/mL"},
      {"measurement": "fold change (FC)", "setting": "[26]", "result": 4},
      {"measurement": "Activity", "setting": "[27]", "result": "Dose-dependent effect"},
      {"measurement": "fold change (FC)", "setting": "[28]", "result": "4 - 128"},
      {"measurement": "MIC", "setting": "[29]", "result": "> 128", "unit": "µg/mL"},
      {"measurement": "MIC", "setting": "[30]", "result": "> 128", "unit": "µg/mL"},
      {"measurement": "fractional inhibitory concentration index (FICI)", "setting": "[31]", "result": ">4"},
      {"measurement": "MIC", "setting": "[32]", "result": "> 128", "unit": "µg/mL"},
      {"measurement": "MIC", "setting": "[33]", "result": 8, "unit": "µg/mL"},
      {"measurement": "Activity", "setting": "[34]", "result": "Dose-dependent effect"},
      {"measurement": "MIC", "setting": "[35]", "result": 128, "unit": "µg/mL"}
    ]}
  ]
}
